One may read the IC50 as the concentration that inhibits the measured activity by half.

This assay deals with T1, squalene synthetase (Rattus norvegicus, UniProt Q02769).
T1 construct: from tissue; host or cells: rat liver microsomes (lovastatin-fed male Charles River CD rats)
T1 sequence (Q02769 1-416): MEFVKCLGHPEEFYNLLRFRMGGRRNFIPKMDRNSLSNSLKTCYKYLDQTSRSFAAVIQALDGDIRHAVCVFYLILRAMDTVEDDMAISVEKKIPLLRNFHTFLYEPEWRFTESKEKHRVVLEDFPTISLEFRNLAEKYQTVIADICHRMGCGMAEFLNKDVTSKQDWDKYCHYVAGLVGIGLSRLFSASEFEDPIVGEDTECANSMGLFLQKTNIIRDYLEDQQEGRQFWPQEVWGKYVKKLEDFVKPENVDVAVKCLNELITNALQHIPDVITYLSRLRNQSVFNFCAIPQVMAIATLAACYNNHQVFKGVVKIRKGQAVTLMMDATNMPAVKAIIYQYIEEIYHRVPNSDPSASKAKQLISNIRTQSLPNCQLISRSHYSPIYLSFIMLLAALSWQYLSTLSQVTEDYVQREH
Put plainly: Squalene synthetase assay (rat liver microsomes, [4-14C]farnesyl-pyrophosphate). The class given is biochemical. The following applies: rat liver microsomal protein, 30° C., 20 minutes; read-out: IC50 squalene synthetase inhibition. As for the experimental part:
The intrinsic squalene synthetase inhibitory activity of representative compounds of this invention was measured by the standard in vitro protocol described below:
Male, Charles River CD rats (120 to 150 g) were fed a diet containing 0.1% lovastatin for 4 days. The livers from these rats were homogenized in 5 volumes (ml/g) of ice cold 50 Mm HEPES (4-(2-hydroxyethyl)-1-piperazine-ethanesulfonic acid), 5 mM EDTA(ethylenediaminetetraacetic acid) pH 7.5 with a Potter-Elvehjem type tissue grinder. The homogenate was centrifuged twice at 20,000×g for 15 minutes at 4,C, discarding the pellet each time. The supernatant was then centrifuged at 100,000×g for 1 hour at 4° C. The resulting microsomal pellet was resuspended in a volume of the above homogenizing buffer equal to one-fifth the volume of the original homogenate. This microsomal preparation has a protein concentration of about 7 mg/ml. The microsomal suspensions were stored in aliquots at -70° C. Squalene synthetase activity in these aliquots is stable for at least several months. […]
This assay mix was degassed under a vacuum and flushed with N2. […] Ten ml of scintillation fluid was added to the heptane solution and radioactivity was determined by liquid scintillation counting. […]
IC50 values were determined by plotting the log of the concentration of the test compound versus the percentage inhibition. […]

As to `C=C(CC[C@@]12C[C@@H](OC(=O)/C=C/C(C)CC(C)CC)[C@@](C(=O)O)(O1)[C@](O)(C(=O)O)[C@@H](C(=O)O)O2)C(OC(C)=O)C(C)Cc1ccccc1` (stereo partly shown) [Compound A], the IC50 is 0.95 nM.

(Values after patent US5262435A, “Cholesterol lowering compounds” (Merck & Co., Inc., priority 1992, dated 1993).)
